In patent publication US8895504B2, “Amylin derivatives” (priority 2008, dated 2014):
*1 amine or outer side, *2 acyl side, *3 side chain or, on linkers, in order; H or OH if unused. Where a SMILES comes first, the peptide text is derived from it. Bridges are numbered along the chain shown (N, C = ends). The star is where a group is joined. C20 diacid = O=C(O)CCCCCCCCCCCCCCCCCCC(=O)*; γGlu = O=C(O)[C@H](CCC(=O)[*:2])N[*:1]; AEEA = NCCOCCOCC(=O)O

Target: T1, Amylin 3(a) receptor (human calcitonin receptor (CTa) and RAMP-3) (Homo sapiens, UniProt O60896+P30988)
T1 construct: expressed in transfected cells; host or cells: BHK570 cells, stably transfected with a CRE-luciferase reporter
Experiment: Luciferase assay (III), BHK Amylin 3(a)//CRE-luc cells
Format: cell-based
Details: BHK cells with Amylin 3(a) receptor and CRE luciferase reporter, 4 hours incubation; read-out: Potency Luciferase
Summary of the method: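 Read-out is CRE-driven luciferase luminescence, taken 30 min after LucLite addition at room temperature. Compounds were incubated 4 h at 37° C in assay medium (10% FBS, 10 mM Hepes, pH 7,4). The cell line is BHK570 co-transfected with human calcitonin receptor CTa and RAMP-3, seeded overnight before use.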

T1 sequence (O60896 24-148): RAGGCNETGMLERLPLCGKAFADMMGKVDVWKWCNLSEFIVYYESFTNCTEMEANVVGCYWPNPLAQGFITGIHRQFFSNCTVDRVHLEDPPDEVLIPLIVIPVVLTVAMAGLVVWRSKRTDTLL
T1 sequence (P30988 25-474): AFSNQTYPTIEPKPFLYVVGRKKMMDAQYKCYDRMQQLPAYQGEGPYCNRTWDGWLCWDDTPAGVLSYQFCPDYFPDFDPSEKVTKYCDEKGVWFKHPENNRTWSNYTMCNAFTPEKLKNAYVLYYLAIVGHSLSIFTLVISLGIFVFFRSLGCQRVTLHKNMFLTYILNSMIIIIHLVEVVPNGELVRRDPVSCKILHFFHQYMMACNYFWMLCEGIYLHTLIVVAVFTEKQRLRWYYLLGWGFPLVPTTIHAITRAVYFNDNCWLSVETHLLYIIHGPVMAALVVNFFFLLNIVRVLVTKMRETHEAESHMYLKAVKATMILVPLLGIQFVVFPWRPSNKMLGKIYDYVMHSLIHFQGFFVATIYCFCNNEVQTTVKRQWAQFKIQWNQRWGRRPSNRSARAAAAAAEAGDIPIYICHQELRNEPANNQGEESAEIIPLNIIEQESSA

SMILES	EC50 [nM]
CC[C@H](C)[C@H](NC(=O)[C@@H]1CCCN1C(=O)CNC(=O)[C@H](Cc1ccccc1)NC(=O)[C@H](CC(N)=O)NC(=O)[C@H](CC(N)=O)NC(=O)[C@H](CO)NC(=O)[C@H](CO)NC(=O)[C@H](Cc1c[nH]cn1)NC(=O)[C@H](CCCNC(=N)N)NC(=O)[C@H](CC(C)C)NC(=O)[C@H](Cc1ccccc1)NC(=O)[C@H](CC(N)=O)NC(=O)[C@H](C)NC(=O)[C@H](CC(C)C)NC(=O)[C@H](CCCNC(=N)N)NC(=O)[C@H](CCC(N)=O)NC(=O)[C@@H](NC(=O)[C@H](C)NC(=O)[C@@H]1CSSC[C@H](NC(=O)[C@H](CCCNC(=N)N)NC(=O)[C@H](Cc2c[nH]cn2)NC(=O)[C@H](Cc2c[nH]cn2)NC(=O)[C@H](CCC(=O)O)NC(=O)CC[C@H](NC(=O)CCCCCCCCCCCCCCCCCCC(=O)O)C(=O)O)C(=O)N[C@@H](CC(N)=O)C(=O)N[C@@H]([C@@H](C)O)C(=O)N[C@@H](C)C(=O)N[C@@H]([C@@H](C)O)C(=O)N1)[C@@H](C)O)C(=O)N[C@@H](CC(C)C)C(=O)N1CCC[C@H]1C(=O)N1CCC[C@H]1C(=O)N[C@H](C(=O)N[C@@H](CC(N)=O)C(=O)N[C@H](C(=O)NCC(=O)N[C@@H](CO)C(=O)N[C@@H](CC(N)=O)C(=O)N[C@H](C(=O)N[C@@H](Cc1ccc(O)cc1)C(N)=O)[C@@H](C)O)C(C)C)[C@@H](C)O [Example 58, N-alpha-[(S)-4-Carboxy-4-(19-carboxynonadecanoylamino)butyryl]-Glu-His-His-[Arg1,Arg17]-pramlintide] ({C20 diacid-γGlu}-EHHRCNTATCATQRLANFLRHSSNNFGPILPPTNVGSNTY-NH2; disulfide 5-10)	0.2
CC[C@H](C)[C@H](NC(=O)[C@@H]1CCCN1C(=O)CNC(=O)[C@H](Cc1ccccc1)NC(=O)[C@H](CC(N)=O)NC(=O)[C@H](CC(N)=O)NC(=O)[C@H](CO)NC(=O)[C@H](CO)NC(=O)[C@H](Cc1c[nH]cn1)NC(=O)[C@H](Cc1c[nH]cn1)NC(=O)[C@H](CC(C)C)NC(=O)[C@H](Cc1ccccc1)NC(=O)[C@H](CC(N)=O)NC(=O)[C@H](C)NC(=O)[C@H](CC(C)C)NC(=O)[C@H](CCCNC(=N)N)NC(=O)[C@H](CCC(N)=O)NC(=O)[C@@H](NC(=O)[C@H](C)NC(=O)[C@@H]1CSSC[C@H](NC(=O)[C@H](CCC(=O)O)NC(=O)[C@H](CCC(=O)O)NC(=O)CC[C@H](NC(=O)CCCCCCCCCCCCCCCCCCC(=O)O)C(=O)O)C(=O)N[C@@H](CC(N)=O)C(=O)N[C@@H]([C@@H](C)O)C(=O)N[C@@H](C)C(=O)N[C@@H]([C@@H](C)O)C(=O)N1)[C@@H](C)O)C(=O)N[C@@H](CC(C)C)C(=O)N1CCC[C@H]1C(=O)N1CCC[C@H]1C(=O)N[C@H](C(=O)N[C@@H](CC(N)=O)C(=O)N[C@H](C(=O)NCC(=O)N[C@@H](CO)C(=O)N[C@@H](CC(N)=O)C(=O)N[C@H](C(=O)N[C@@H](Cc1ccc(O)cc1)C(N)=O)[C@@H](C)O)C(C)C)[C@@H](C)O [Example 50, N-alpha-[(S)-4-Carboxy-4-(19-carboxynonadecanoylamino)butyryl]-Glu-[Glu1,His17]-pramlintide] ({C20 diacid-γGlu}-EECNTATCATQRLANFLHHSSNNFGPILPPTNVGSNTY-NH2; disulfide 3-8)	0.3
CC[C@H](C)[C@H](NC(=O)[C@@H]1CCCN1C(=O)CNC(=O)[C@H](Cc1ccccc1)NC(=O)[C@H](CC(N)=O)NC(=O)[C@H](CC(N)=O)NC(=O)[C@H](CO)NC(=O)[C@H](CO)NC(=O)[C@H](Cc1c[nH]cn1)NC(=O)[C@H](Cc1c[nH]cn1)NC(=O)[C@H](CC(C)C)NC(=O)[C@H](Cc1ccccc1)NC(=O)[C@H](CC(N)=O)NC(=O)[C@H](C)NC(=O)[C@H](CC(C)C)NC(=O)[C@H](CCCNC(=N)N)NC(=O)[C@H](CCC(N)=O)NC(=O)[C@@H](NC(=O)[C@H](C)NC(=O)[C@@H]1CSSC[C@H](NC(=O)[C@H](CCCNC(=N)N)NC(=O)[C@H](Cc2c[nH]cn2)NC(=O)[C@H](Cc2c[nH]cn2)NC(=O)[C@H](CCC(=O)O)NC(=O)CC[C@H](NC(=O)CCCCCCCCCCCCCCCCCCC(=O)O)C(=O)O)C(=O)N[C@@H](CC(N)=O)C(=O)N[C@@H]([C@@H](C)O)C(=O)N[C@@H](C)C(=O)N[C@@H]([C@@H](C)O)C(=O)N1)[C@@H](C)O)C(=O)N[C@@H](CC(C)C)C(=O)N1CCC[C@H]1C(=O)N1CCC[C@H]1C(=O)N[C@H](C(=O)N[C@@H](CC(N)=O)C(=O)N[C@H](C(=O)NCC(=O)N[C@@H](CO)C(=O)N[C@@H](CC(N)=O)C(=O)N[C@H](C(=O)N[C@@H](Cc1ccc(O)cc1)C(N)=O)[C@@H](C)O)C(C)C)[C@@H](C)O [Example 67, N-alpha-[(S)-4-Carboxy-4-(19-carboxynonadecanoylamino)butyryl]-Glu-His-His-[Arg1,His17]-pramlintide] ({C20 diacid-γGlu}-EHHRCNTATCATQRLANFLHHSSNNFGPILPPTNVGSNTY-NH2; disulfide 5-10)	0.1

Further compounds by falling EC50, results first:

EC50 [nM]	SMILES
0.1	CC[C@H](C)[C@H](NC(=O)[C@@H]1CCCN1C(=O)CNC(=O)[C@H](Cc1ccccc1)NC(=O)[C@H](CC(N)=O)NC(=O)[C@H](CC(N)=O)NC(=O)[C@H](CO)NC(=O)[C@H](CO)NC(=O)[C@H](Cc1c[nH]cn1)NC(=O)[C@H](CCCNC(=N)N)NC(=O)[C@H](CC(C)C)NC(=O)[C@H](Cc1ccccc1)NC(=O)[C@H](CC(N)=O)NC(=O)[C@H](C)NC(=O)[C@H](CC(C)C)NC(=O)[C@H](CCCNC(=N)N)NC(=O)[C@H](CCC(N)=O)NC(=O)[C@@H](NC(=O)[C@H](C)NC(=O)[C@@H]1CSSC[C@H](NC(=O)[C@H](Cc2c[nH]cn2)NC(=O)[C@H](Cc2c[nH]cn2)NC(=O)CC[C@H](NC(=O)CCCCCCCCCCCCCCCCCCC(=O)O)C(=O)O)C(=O)N[C@@H](CC(N)=O)C(=O)N[C@@H]([C@@H](C)O)C(=O)N[C@@H](C)C(=O)N[C@@H]([C@@H](C)O)C(=O)N1)[C@@H](C)O)C(=O)N[C@@H](CC(C)C)C(=O)N1CCC[C@H]1C(=O)N1CCC[C@H]1C(=O)N[C@H](C(=O)N[C@@H](CC(N)=O)C(=O)N[C@H](C(=O)NCC(=O)N[C@@H](CO)C(=O)N[C@@H](CC(N)=O)C(=O)N[C@H](C(=O)N[C@@H](Cc1ccc(O)cc1)C(N)=O)[C@@H](C)O)C(C)C)[C@@H](C)O [Example 35, N-alpha-[(S)-4-Carboxy-4-(19-carboxynonadecanoylamino)butyryl]-His-[His1,Arg17]-pramlintide] ({C20 diacid-γGlu}-HHCNTATCATQRLANFLRHSSNNFGPILPPTNVGSNTY-NH2; disulfide 3-8)
0.08	CC[C@H](C)[C@H](NC(=O)[C@@H]1CCCN1C(=O)CNC(=O)[C@H](Cc1ccccc1)NC(=O)[C@H](CC(N)=O)NC(=O)[C@H](CC(N)=O)NC(=O)[C@H](CO)NC(=O)[C@H](CO)NC(=O)[C@H](Cc1c[nH]cn1)NC(=O)[C@H](C)NC(=O)[C@H](CC(C)C)NC(=O)[C@H](Cc1ccccc1)NC(=O)[C@H](CC(N)=O)NC(=O)[C@H](C)NC(=O)[C@H](CC(C)C)NC(=O)[C@H](CCCNC(=N)N)NC(=O)[C@H](CCC(N)=O)NC(=O)[C@@H](NC(=O)[C@H](C)NC(=O)[C@@H]1CSSC[C@H](NC(=O)[C@H](CCCCN)NC(=O)[C@H](CCCNC(=N)N)NC(=O)COCCOCCNC(=O)CC[C@H](NC(=O)CCCCCCCCCCCCCCCCCCC(=O)O)C(=O)O)C(=O)N[C@@H](CC(N)=O)C(=O)N[C@@H]([C@@H](C)O)C(=O)N[C@@H](C)C(=O)N[C@@H]([C@@H](C)O)C(=O)N1)[C@@H](C)O)C(=O)N[C@@H](CC(C)C)C(=O)N1CCC[C@H]1C(=O)N1CCC[C@H]1C(=O)N[C@H](C(=O)N[C@@H](CC(N)=O)C(=O)N[C@H](C(=O)NCC(=O)N[C@@H](CO)C(=O)N[C@@H](CC(N)=O)C(=O)N[C@H](C(=O)N[C@@H](Cc1ccc(O)cc1)C(N)=O)[C@@H](C)O)C(C)C)[C@@H](C)O [Example 24, N-alpha-[2-(2-{2-[4-(S)-Carboxy-4-(19-carboxynonadecanoylamino)butyrylamino]ethoxy}ethoxy)acetyl]-Arg-[Ala17]-pramlintide] ({C20 diacid-γGlu-AEEA}-RKCNTATCATQRLANFLAHSSNNFGPILPPTNVGSNTY-NH2; disulfide 3-8)
0.06	CC[C@H](C)[C@H](NC(=O)[C@@H]1CCCN1C(=O)CNC(=O)[C@H](Cc1ccccc1)NC(=O)[C@H](CC(N)=O)NC(=O)[C@H](CC(N)=O)NC(=O)[C@H](CO)NC(=O)[C@H](CO)NC(=O)[C@H](Cc1c[nH]cn1)NC(=O)[C@H](Cc1c[nH]cn1)NC(=O)[C@H](CC(C)C)NC(=O)[C@H](Cc1ccccc1)NC(=O)[C@H](CC(N)=O)NC(=O)[C@H](C)NC(=O)[C@H](CC(C)C)NC(=O)[C@H](CCCNC(=N)N)NC(=O)[C@H](CCC(N)=O)NC(=O)[C@@H](NC(=O)[C@H](C)NC(=O)[C@@H]1CSSC[C@H](NC(=O)[C@H](CCCCN)NC(=O)[C@H](CCCNC(=N)N)NC(=O)[C@H](CCCCN)NC(=O)[C@H](CCC(=O)O)NC(=O)CCCCCCCCCCCCCCCCCCC(=O)O)C(=O)N[C@@H](CC(N)=O)C(=O)N[C@@H]([C@@H](C)O)C(=O)N[C@@H](C)C(=O)N[C@@H]([C@@H](C)O)C(=O)N1)[C@@H](C)O)C(=O)N[C@@H](CC(C)C)C(=O)N1CCC[C@H]1C(=O)N1CCC[C@H]1C(=O)N[C@H](C(=O)N[C@@H](CC(N)=O)C(=O)N[C@H](C(=O)NCC(=O)N[C@@H](CO)C(=O)N[C@@H](CC(N)=O)C(=O)N[C@H](C(=O)N[C@@H](Cc1ccc(O)cc1)C(N)=O)[C@@H](C)O)C(C)C)[C@@H](C)O [Example 9, N-alpha-[19-carboxynonadecanoyl]-Glu-Lys-Arg-[His17]-pramlintide] ({C20 diacid}-EKRKCNTATCATQRLANFLHHSSNNFGPILPPTNVGSNTY-NH2; disulfide 5-10)
